Reference: ChEMBL document CHEMBL1201862, “PubChem BioAssay data set” (2004)
Where “and” joins values, the source holds several entries; their conditions need not be identical. Equal values may be shown once.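 Results reflect a 48-hour exposure of cells in 96-well plates to compound at five concentrations. Abbreviation: GI50, concentration required for 50% inhibition of growth.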 Calls of active or inactive are those of the source. Cut-off read from the data, not from the text of the source: active = GI50 up to about 1.1 µM and inactive = higher.

Columns and labels:
Test in all cases: growth of human tumour cells (NCI), 48 h
DMS-114 = system: DMS-114
DMS-273 = system: DMS-273
HOP-18 = system: HOP-18
KM-20L2 = system: KM-20L2
M19-MEL = system: M19-MEL
SNB-78 = system: SNB-78
XF498 = system: XF498
LXFL 529 = system: LXFL 529
RXF 631 = system: RXF 631

Measured: GI50

Cc1c2cnccc2c(C)c2c1c1ccccc1n2CCOC(=O)c1ccccc1
inactive: DMS-114 9.51 µM | DMS-273 4.86 µM | HOP-18 20.7 µM | KM-20L2 6.44 µM | M19-MEL 13.9 µM | SNB-78 12.2 µM | XF498 3.27 µM

Cn1cnc([N+](=O)[O-])c1Sc1nnc(-c2cccnc2)n1C
inactive: DMS-114 18.9 µM | DMS-273 80.2 µM | HOP-18 14.6 µM | KM-20L2 33.9 µM | LXFL 529 12 µM | M19-MEL 19.1 µM | SNB-78 21.4 µM | XF498 20.4 µM

C=C=C[P+](c1ccccc1)(c1ccccc1)c1ccccc1
inactive: DMS-114 8.69 µM | DMS-273 27.6 µM | HOP-18 46.7 µM | LXFL 529 3.91 µM | M19-MEL 14.5 µM | SNB-78 16.9 µM

CC(C)(CN1CCCCC1)C(=O)/C=C/c1ccc(Cl)c(Cl)c1
inactive: DMS-114 1.56 µM | DMS-273 1.69 µM | HOP-18 1.52 µM | LXFL 529 1.46 µM | M19-MEL 1.63 µM | RXF 631 1.72 µM | SNB-78 1.51 µM

Cc1cccc(C(C)C)c1N1C(=O)C(=O)C(c2nc3ccccc3o2)C(=O)C1=O
inactive: DMS-114 24.7 µM | DMS-273 93.8 µM | HOP-18 > 100 µM | KM-20L2 35.4 µM | LXFL 529 61.1 µM | M19-MEL 55.3 µM | RXF 631 27.2 µM | SNB-78 > 100 µM | XF498 21.1 µM

CCOC(=O)[C@H]1Nc2ccccc2C2c3ccccc3CC21 (some centres not stated)
inactive: DMS-114 88.1 µM | DMS-273 74 µM | KM-20L2 39.4 µM | LXFL 529 41.6 µM | M19-MEL 74.3 µM | RXF 631 > 100 µM | SNB-78 > 100 µM | XF498 > 100 µM

Cc1nc2ccncc2[nH]1
inactive: DMS-114 > 100 µM | DMS-273 > 100 µM | KM-20L2 > 100 µM | LXFL 529 > 100 µM | M19-MEL > 100 µM | RXF 631 > 100 µM | XF498 58.6 µM

O=C1OC(CC(=O)c2ccc(Cl)cc2)C(Cl)=C1Cl (configuration not stated)
inactive: DMS-114 > 100 µM | DMS-273 > 100 µM | HOP-18 > 100 µM | KM-20L2 > 100 µM | LXFL 529 > 100 µM | M19-MEL > 100 µM | XF498 > 100 µM

CSc1nc2c(nc(C)c(=O)n2C2OCC(OC(C)=O)C(OC(C)=O)C2OC(C)=O)c(=O)[nH]1 (configuration not stated)
inactive: DMS-114 > 100 µM | DMS-273 > 100 µM | KM-20L2 > 100 µM | LXFL 529 > 100 µM | M19-MEL > 100 µM | XF498 > 100 µM

O=C(c1ccc(NCN2C(=O)CCC2=O)cc1)c1ccc(NCN2C(=O)CCC2=O)cc1
inactive: DMS-273 49.8 µM | KM-20L2 > 100 µM | LXFL 529 > 100 µM | M19-MEL > 100 µM | RXF 631 > 100 µM | SNB-78 > 100 µM | XF498 > 100 µM

NC(CCCC(N)P(=O)(O)O)P(=O)(O)O (configuration not stated)
inactive: DMS-114 > 100 µM | DMS-273 > 100 µM | HOP-18 > 100 µM | LXFL 529 > 100 µM | M19-MEL > 100 µM | RXF 631 > 100 µM | SNB-78 > 100 µM

COc1ccccc1/C=C1\C(=O)N(C(=O)Cc2ccccc2)N=C1C
inactive: DMS-114 > 100 µM | DMS-273 > 100 µM | HOP-18 13.1 µM | M19-MEL > 100 µM | SNB-78 > 100 µM | XF498 > 100 µM

CC1C[C@@H]2C(=O)NC(=O)[C@@H]2c2c1c1ccccc1n2C (some centres not stated)
inactive: DMS-114 > 100 µM | DMS-273 > 100 µM | KM-20L2 > 100 µM | LXFL 529 > 100 µM | M19-MEL > 100 µM | RXF 631 > 100 µM | SNB-78 > 100 µM | XF498 > 100 µM

Cc1nc(C(N)=S)sc1C(=O)CC(=O)C(=O)Nc1ccccc1[N+](=O)[O-]
inactive: DMS-114 > 100 µM | DMS-273 > 100 µM | HOP-18 > 100 µM | KM-20L2 > 100 µM | LXFL 529 > 100 µM | M19-MEL > 100 µM | RXF 631 > 100 µM | SNB-78 > 100 µM

COc1nc(=O)n(COC(CO)CN2C(=O)c3ccccc3C2=O)cc1Cc1cccc(OCc2ccccc2)c1 (configuration not stated)
inactive: DMS-114 22 µM | DMS-273 19.4 µM | HOP-18 27.5 µM | KM-20L2 26.2 µM | LXFL 529 30.1 µM | M19-MEL 20.7 µM | SNB-78 31.6 µM

COc1ccc(C2=NN(c3ccccc3)C[N+](c3ccc(OC)cc3)=N2)cc1
inactive: DMS-114 24.2 µM | DMS-273 24.5 µM | KM-20L2 29.6 µM | LXFL 529 17.2 µM | M19-MEL 30.5 µM | SNB-78 28.2 µM | XF498 18.8 µM

O=C(Cc1ccccc1)NN1C(=O)C(Cl)C1c1ccc([N+](=O)[O-])cc1 (configuration not stated)
inactive: DMS-114 28.6 µM | DMS-273 > 100 µM | HOP-18 > 100 µM | KM-20L2 > 100 µM | LXFL 529 95.9 µM | M19-MEL > 100 µM | SNB-78 45.9 µM | XF498 > 100 µM

COc1cccc(Cc2c3cc(OC)ccc3cc[n+]2C)c1
inactive: KM-20L2 65.5 µM | LXFL 529 36.4 µM | SNB-78 > 100 µM | XF498 12.4 µM

Nc1nnc(N)n1N
inactive: DMS-114 > 100 µM | DMS-273 > 100 µM | LXFL 529 > 100 µM | M19-MEL > 100 µM | RXF 631 > 100 µM | SNB-78 > 100 µM | XF498 28.8 µM

COc1ccc(/C(=N/NC(N)=O)C2(O)C(=O)Nc3ccc([N+](=O)[O-])cc32)cc1 (configuration not stated)
inactive: DMS-114 19.7 µM | DMS-273 18.3 µM | KM-20L2 22.3 µM | LXFL 529 18.3 µM | M19-MEL 20.7 µM | SNB-78 17.8 µM | XF498 16.5 µM

COC(=O)C(Cc1nc2ccc(Cl)cc2nc1O)/C(=N/NC(N)=O)C(=O)Nc1ccc(Cl)cc1 (configuration not stated)
inactive: DMS-114 > 100 µM | DMS-273 > 100 µM | HOP-18 > 100 µM | KM-20L2 > 100 µM | LXFL 529 > 100 µM | M19-MEL > 100 µM | RXF 631 > 100 µM | SNB-78 > 100 µM | XF498 > 100 µM

CN1c2ccccc2N(C)C2C1N(C)c1ccccc1N2C (configuration not stated)
inactive: DMS-114 5.71 µM | DMS-273 8.75 µM | KM-20L2 15.7 µM | LXFL 529 12.6 µM | M19-MEL 6.84 µM | RXF 631 37.1 µM | SNB-78 18.9 µM | XF498 7 µM

Cc1c(C(=O)CC(=O)C(=O)Nc2ccccc2C(F)(F)F)[n+]([O-])c2ccccc2[n+]1[O-]
inactive: DMS-114 11.5 µM | DMS-273 25.8 µM | HOP-18 2.2 µM | KM-20L2 33.7 µM | LXFL 529 20.8 µM | SNB-78 47.2 µM | XF498 9.44 µM

O=c1nc(NC(c2ccccc2)(c2ccccc2)c2ccccc2)ccn1CCO
inactive: DMS-114 52.7 µM | HOP-18 > 100 µM | KM-20L2 > 100 µM | LXFL 529 63.4 µM | SNB-78 > 100 µM

COC(=O)c1ccc(CS(=O)(=O)c2ccccc2)cc1
inactive: DMS-114 64.3 µM | DMS-273 45.4 µM | HOP-18 > 100 µM | KM-20L2 61.5 µM | LXFL 529 > 100 µM | M19-MEL 45.4 µM | RXF 631 > 100 µM | SNB-78 > 100 µM | XF498 > 100 µM

CCC(=O)OCOc1ccc(/C=C2\CCC(CN(C)C)C2=O)cc1 (configuration not stated)
inactive: DMS-114 18.3 µM | DMS-273 3.97 µM | HOP-18 15.4 µM | KM-20L2 13.1 µM | LXFL 529 2.94 µM | M19-MEL 4.47 µM | RXF 631 8.34 µM | SNB-78 9.68 µM | XF498 2.14 µM

COC(=O)CCC(NC(=S)N/N=C/c1ccccn1)C(=O)OC (configuration not stated)
inactive: DMS-114 > 100 µM | HOP-18 > 100 µM | KM-20L2 > 100 µM | LXFL 529 > 100 µM | M19-MEL > 100 µM | RXF 631 > 100 µM | SNB-78 > 100 µM | XF498 > 100 µM

CCOC(=O)Cn1c(=O)n(C)c(=O)c2[nH]cnc21
inactive: DMS-114 > 100 µM | DMS-273 > 100 µM | LXFL 529 > 100 µM | M19-MEL > 100 µM | SNB-78 > 100 µM | XF498 > 100 µM

N#Cc1cccc(N2C(=O)c3ccc(C(=O)c4ccc5c(c4)C(=O)N(c4cccc(C#N)c4)C5=O)cc3C2=O)c1
inactive: DMS-114 > 100 µM | DMS-273 > 100 µM | HOP-18 > 100 µM | KM-20L2 > 100 µM | LXFL 529 > 100 µM | M19-MEL > 100 µM | SNB-78 > 100 µM | XF498 > 100 µM

CN1N=C2c3ccccc3CC[C@H]2C1c1ccccc1 (some centres not stated)
inactive: DMS-114 22.5 µM | DMS-273 26.6 µM | HOP-18 > 100 µM | KM-20L2 36.9 µM | LXFL 529 15.4 µM | M19-MEL 15.7 µM | SNB-78 83.9 µM

COc1cc2c(cc1O)[C@H](C)C(c1ccc(Cl)cc1)O2 (some centres not stated)
inactive: DMS-114 13.9 µM | DMS-273 16.5 µM | HOP-18 36.2 µM | KM-20L2 23.1 µM | LXFL 529 17.2 µM | M19-MEL 15.8 µM | RXF 631 26 µM | SNB-78 21.3 µM | XF498 15.5 µM

Brc1ccc(C[N+]23CN4CN(CN(C4)C2)C3)cc1
inactive: DMS-114 23.6 µM | DMS-273 22.5 µM | KM-20L2 31.1 µM | M19-MEL 41.8 µM | SNB-78 83.2 µM

O=c1c(Cl)c(Cl)cnn1-c1ccccc1
inactive: DMS-114 2.33 µM and 1.56 µM | HOP-18 8.53 µM and 5.19 µM | LXFL 529 1.67 µM and 1.71 µM | M19-MEL 3.05 µM and 3.13 µM | SNB-78 7.33 µM | XF498 2.46 µM
